Measurements: patent publication US8993595B2, “Macrocyclic serine protease inhibitors” (priority 2009, dated 2015)

How the values were obtained:
[1] = system: HCV Con1 subgenomic replicon in Huh-7 cells (GS4.1 cells); assay: HCV Replicon Assay (NS4A ELISA); format: cell-based; conditions: Hepatitis C virus, 72 hr
Procedure: Huh-7 cells containing HCV Con1 subgenomic replicon (GS4.1 cells) were grown in Dulbecco's Modified Eagle Medium (DMEM) supplemented with 10% fetal bovine serum (FBS), 2 mM L-glutamine, 110 mg/L sodium pyruvate, 1× non-essential amino acids, 100 U/mL penicillin-streptomycin, and 0.5 mg/mL G418 (Invitrogen). For dose-response testing, the cells were seeded in 96-well plates at 7.5×10^3 cells/well in a volume of 50 μL, and incubated at 37° C./5% CO2. Three hours after plating, 50 μL of ten 2-fold serial dilutions of compounds (highest concentration, 75 μM) were added, and cell cultures were incubated at 37° C./5% CO2 in the presence of 0.5% DMSO. Alternatively, compounds were tested at a single concentration of 15 μM. In all cases, Huh-7 cells lacking the HCV replicon served as negative control. The cells were incubated in the presence of compounds for 72 hr after which they were monitored for expression of the NS4A protein by enzyme-linked immunosorbent assay (ELISA). For this, the plates were then fixed for 1 min with acetone/methanol (1:1, v/v), washed twice with phosphate-buffered saline (PBS), 0.1% Tween 20, blocked for 1 hr at room temperature with TNE buffer containing 10% FBS and then incubated for 2 hr at 37° C. with the anti-NS4A mouse monoclonal antibody A-236 (ViroGen) diluted in the same buffer. After washing three times with PBS, 0.1% Tween 20, the cells were incubated 1 hr at 37° C. with anti-mouse immunoglobulin G-peroxidase conjugate in TNE, 10% FBS. After washing as described above, the reaction was developed with O-phenylenediamine (Zymed). The reaction was stopped after 30 min with 2 N H2SO4, and absorbance was read at 492 nm using Sunrise Tecan spectrophotometer. EC50 values were determined from the % inhibition versus concentration data using a sigmoidal non-linear regression analysis based on four parameters with Tecan Magellan software.

[2] = MTS Cytotoxicity Assay in HPC cells; format: cell-based; conditions: human; HPC cells (2a virus line)
Procedure: HPC cells were infected with JFH-1 (genotype 2a) and treated with the compound for 4 days (virus inoculum was removed after 16 hrs). Remaining virus was measured by an anti-HCV core ELISA. Compound cytotoxicity was also measured in parallel using a colorimetric proliferation assay as described in Example 5.
The cytotoxicity assay measures the viability of cells after treatment with a test compound for 5 days. The assay readout is the bioreduction of the yellow MTS tetrazolium compound to a purple formazan product. This conversion is mediated by NADPH or NADH and is directly proportional to the number of live cells in a culture.
Ninety-six-well Corning Costar plates were seeded with HPC cells at a density of 3.0×10^3 cells per well in 50 μL of Huh-7 media. Compound stock solutions were made up freshly in Huh-7 media as 2× stocks. Seven additional 3-fold drug dilutions were prepared from the 2× stocks in Huh-7 media for a total of 8 dilutions.
At least 4 hours after HPC cells were seeded, 50 μL of each drug dilution was added to the cultures. […]
After 5 days of treatment, the CellTiter 96® Aqueous One Solution cell proliferation assay was performed by adding 20 μL of MTS solution to each well. […] Plates were read at A490 nm in a Victor^3 V 1420 multilabel counter (Perkin Elmer) and CC50 concentrations were determined using Microsoft Excel and XLfit 4.1 software. […]

[3] = system: genotype 1b replicon cells; assay: Selection of drug-resistant genotype 1b replicon cell lines; format: cell-based, HCV; conditions: all eight selected genotype 1b cell lines
Procedure: (§1) Replicon cells (genotype 1a or 1b) were treated with various concentrations of compound 52 in the presence of G418. Treatment-emergent genotypic changes were identified by population sequencing of NS3 (both protease and helicase regions). The activity of compound 52 and other compounds was evaluated by NS5A western blot after selection or luciferase assay during and after selection.
(§2) Eight drug-resistance replicon cell lines were created by long-term culture of genotype 1b replicon cells with 10 or 25 nM of compound 52. NS3 (AAs 1-631) was sequenced at each passage.

[4] = system: ZlucB cell line (genotype 1b replicon selected with 25 nM compound 52, D168V); assay: Extent of resistance after selection, luciferase assay, ZlucB; format: cell-based, HCV; conditions: selecting conc. 25 nM, EC50 resistant / EC50 wild-type
Procedure: as §1, §2

human CYP450 2C9 = molecular target: T1, human CYP450 2C9 (Homo sapiens, UniProt P11712); assay: CYP450 inhibition assay, 2C9; format: in vitro ADME
T1 construct: purchased BD Bioscience
T1 sequence (P11712 whole entry): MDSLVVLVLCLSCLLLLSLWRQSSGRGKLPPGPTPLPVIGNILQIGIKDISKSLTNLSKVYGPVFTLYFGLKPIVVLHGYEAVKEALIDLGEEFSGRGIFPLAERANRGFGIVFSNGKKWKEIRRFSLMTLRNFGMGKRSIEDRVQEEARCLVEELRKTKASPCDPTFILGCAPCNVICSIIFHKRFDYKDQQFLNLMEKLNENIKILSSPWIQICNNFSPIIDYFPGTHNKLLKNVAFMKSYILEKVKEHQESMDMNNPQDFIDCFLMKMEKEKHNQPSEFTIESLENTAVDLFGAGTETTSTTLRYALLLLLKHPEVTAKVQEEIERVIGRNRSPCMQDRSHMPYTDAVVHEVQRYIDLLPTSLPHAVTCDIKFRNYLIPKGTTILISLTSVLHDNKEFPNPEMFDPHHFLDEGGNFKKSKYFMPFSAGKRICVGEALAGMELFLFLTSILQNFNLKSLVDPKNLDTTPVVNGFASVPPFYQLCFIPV
Procedure: Compound 52 was incubated with human CYP450 cDNA-expressed isoenzymes according to the protocol (BD Bioscience). For CYP2C9, a luminogenic substrate was used with the P450-Glo™ kit. In addition, the effect of the compound on CYP2C9-mediated diclofenac metabolism was measured by LC-UV. The potential inhibitory effect of the compound on human UGT1A1 was examined using human liver microsomes and bilirubin as substrate. The metabolites (mono- and di-glucuronidated bilirubin) were measured by LC-UV.

[5] = system: S. typhimurium and E. coli; assay: Bacterial mutation test; format: cell-based; conditions: up to 5,000 μg/plate, with and without S9
Procedure: (§3) The potential for compound 52 to induce mutations in a bacterial system (S. typhimurium and E. coli—at concentrations up to 5,000 μg/plate), to induce chromosomal aberrations in cultures of human peripheral blood lymphocytes (at concentrations up to 84 μg/mL), and to induce clastogenic and/or aneugenic activity in CD-1 mice (at oral doses up to 2,000 mg/kg) was evaluated. The two in vitro studies were performed with and without the addition of a mammalian metabolic activation system (rat liver S9 subcellular fraction).

[6] = system: human peripheral blood lymphocytes; format: cell-based; conditions: up to 84 μg/mL, with and without S9
Procedure: as §3

[7] = Pharmacokinetics in human volunteers, single dose cohorts

With COc1ccc2c(O[C@H]3CCN4C(=O)N(C)CCCC/C=C\[C@@H]5C[C@@]5(C(=O)NS(=O)(=O)C5(C)CC5)NC(=O)[C@@H]4C3)cc(-c3nc(C(F)(F)F)cs3)nc2c1C [Compound 52, 1-methyl-cyclopropanesulfonic acid{(Z)-(1S,4R,6S,18S)-18-[7-methoxy-8-methyl-2-(4-trifluoromethyl-thiazol-2-yl)-quinolin-4-yloxy]-13-methyl-2,14-dioxo-3,13,15-triaza-tricyclo[13.4.0.0*4,6*]nonadec-7-ene-4-carbonyl}amide] the EC50 [1] was under 1 µM, the CC50 at 5 days [2] was 11.3 ± 0.1 µM and the “fold-change values (resistance)” value [3] was “no less than 250”. The Fold-Change [4] was 1037 ± 144, the IC50 (human CYP450 2C9) was at least 10 µM and the “genotoxicity, bacterial mutation test” value [5] was “no genotoxicity”. For the same compound, the “genotoxicity, human lymphocyte chromosomal aberration test” value [6] was “no genotoxicity”, the “total and trough exposure, HCV-infected patients compared to healthy volunteers” value ([7]; 2 HCV-infected patients, comparable Cmax) was 2 fold and the “enhancement of overall plasma exposure by food” value ([7]; food compared to fasting state) was “approximately 2 fold”. For the same compound, the C24 hr ([7]; single dose 100 mg, human volunteers) was 19 ± 9 ng/mL, the C24 hr ([7]; single dose 200 mg, HCV patients, N = 2) was 131 ng/mL and the C24 hr ([7]; single dose 200 mg, human volunteers) was 53 ± 26 ng/mL. For the same compound, the C24 hr ([7]; single dose 400 mg Fasted, human volunteers) was 54 ± 28 ng/mL and the C24 hr ([7]; single dose 400 mg, human volunteers) was 89 ± 16 ng/mL.
